From patent US11690389B2, “Red beet pigment composition” (priority 2017, dated 2023)
Where two headings read alike, the source gives them in different places.

Assays:
beet root = conditions: 50 ppm; cited from earlier work
A. Mangostanus seedlings = conditions: cited from earlier work
[1] = system: red beet plants (Monty Rz and Belushi Rz); assay: Field trials harvested at a single time-point: foliar spraying of red beet plants with egc, betalain pigments and yield data of roots; type: in vivo, red beet (Beta vulgaris L. spp. vulgaris); conditions: for Betalains (g kg^−1 DM) / Betalains (mg kg^−1 FW) Bn / Betalains (mg kg^−1 FW) Vx / Betalains:TSS / Bn:Vx: egc 360 g ha^−1 foliar, roots 16 weeks after sowing
Description: (§1) Field trials were conducted at the Hoejbakkegaard (latitude 55, […]; Denmark) in 2015, where three-row plots were arranged in randomized block designs with three replicates. Rainfall was complemented by irrigation throughout red beet growth to avoid water stress. Foliar applications of an ethylene generating compound (egc), 2-chloroethylphosphonic acid (CERONE® brand ETHEPHON, 39.9% active ingredient, Bayer Crop Science, Leverkusen, Germany), at a concentration of 360 g ha^−1 were performed with a CO2 backpack spaced 50 cm apart, using manual spraying equipment designed for agricultural use. Egc application began 5 weeks after sowing and continued every 3 weeks, with a total of five applications. Plants were cultivated in loamy soil using techniques recommended for cultivation and plant protection in red beet crop production.
Trial 1. Plants were grown in plots consisted of 4.5 m-long rows, with a single harvest from the middle part of each row performed 16 weeks after sowing.
(§2) Biological replicates consisting of twenty beetroots were washed and split lengthwise. Of these, one pool of halves was ground and homogenized in a 3% sulfuric acid solution (1/1, w/w), using a Waring® two-speed commercial blender (VWR—Bie & Berntsen, Herlev, Denmark). The resulting fine homogenate was subsequently mixed with demineralized water (1/2, w/w) and vortexed. Finally, the sample was centrifuged for 20 min at 4500 rpm, and the supernatant (extract) was utilized for further analyses.
(§3) Bn and Vx were measured spectrophotometrically. The beetroot extract was diluted to a proper concentration in 33 mM KH2PO4 (pH 6.5), and the absorption was measured at 476 nm and 538 nm for Bn and Vx, respectively, using a UV-visible spectrophotometer (Thermo Scientific Evolution™ 220, Waltham, Mass., USA). Bn and Vx concentrations were expressed in mg kg^−1 fresh weight (FW), using the corresponding absorbance, molecular weight and extinction coefficient for Bn and Vx.
TSS was measured with a manual refractometer (Refracto 30PX/GS Mettler-Toledo Inc., OH, USA) operating in the 0% to 85% Brix range. The beetroot extract was filtered through 0.45 μm membrane filters, and Brix measurements were performed using 1 mL of the filtrate.
DM was determined after samples were dried to a constant weight at 100° C. for 24 h, based on the difference in mass between the fresh and dry samples. […] was then expressed as a percentage of the dry matter.

[2] = system: red beet plants (Monty Rz and Belushi Rz); assay: Field trial with several harvests: betalain accumulation during root growth after foliar spraying with egc; type: in vivo, red beet (Beta vulgaris L. spp. vulgaris); conditions: for Bn content at peak: 9 weeks after sowing as printed; for Betalains (mg kg^−1 FW) Bn / Betalains (mg kg^−1 FW) Vx / Bn:Vx: egc 360 g ha^−1
Description: as §1
Trial 2. Plots consisted of 12 m-long rows, with several harvests from separate row segments performed during growth (3, 6, 9, 12, 15 and 18 weeks after sowing). For further analyses, biological replicates consisted of 20 whole beetroots harvested per plot.
as §2
as §3, with “Vx. […]” for “Vx.”

[3] = Belushi Rz, 3 weeks after sowing
[4] = Belushi Rz, 6 weeks after sowing
[5] = Belushi Rz, 9 weeks after sowing
[6] = Belushi Rz, 12 weeks after sowing
[7] = Belushi Rz, 15 weeks after sowing
[8] = Belushi Rz, 18 weeks after sowing
[9] = Monty Rz, 12 weeks after sowing
[10] = Monty Rz, 15 weeks after sowing
[11] = Monty Rz, 18 weeks after sowing

SMILES: O=P(O)(O)CCCl [egc, 2-chloroethylphosphonic acid]
- beta cyanin efflux (beet root): promoted
- pigment accumulation in seedlings (A. Mangostanus seedlings; 0.1 mM): did not elicit pigment accumulation
- pigment accumulation in seedlings (A. Mangostanus seedlings; 1 mM): did not elicit pigment accumulation
- pigment accumulation in seedlings (A. Mangostanus seedlings; 5 mM): seemed to have an effect
- Vx content of roots, untreated versus treated plants ([1]; 16-week-old plants): did not vary significantly
- increase of Bn:Vx compared with untreated plants ([1]; Belushi Rz): 36%
- increase of betalains:TSS in average ([1]; Belushi Rz): 30%
- increase of root Bn content compared with untreated plants, in average ([1]; Belushi Rz): 20%
- mean Bn:Vx ([1]; Belushi Rz, egc treated beetroots): 6.1
- Betalains (g kg^−1 DM) ([1]; Field trial 1, Belushi Rz): 17.4 g kg^−1 DM
- Betalains (mg kg^−1 FW) Bn ([1]; Field trial 1, Belushi Rz): 1575 mg kg^−1 FW
- Betalains (mg kg^−1 FW) Vx ([1]; Field trial 1, Belushi Rz): 274 mg kg^−1 FW
- Betalains:TSS ([1]; Field trial 1, Belushi Rz): 0.126
- Bn:Vx ([1]; Field trial 1, Belushi Rz): 5.82
- Betalains (g kg^−1 DM) ([1]; Field trial 1, Monty Rz): 21.9 g kg^−1 DM
- Betalains (mg kg^−1 FW) Bn ([1]; Field trial 1, Monty Rz): 2166 mg kg^−1 FW
- Betalains (mg kg^−1 FW) Vx ([1]; Field trial 1, Monty Rz): 386 mg kg^−1 FW
- Betalains:TSS ([1]; Field trial 1, Monty Rz): 0.154
- Bn:Vx ([1]; Field trial 1, Monty Rz): 5.79
- Betalains (g kg^−1 DM) ([1]; Field trial 2, Belushi Rz): 15.0 g kg^−1 DM
- Betalains (mg kg^−1 FW) Bn ([1]; Field trial 2, Belushi Rz): 1584 mg kg^−1 FW
- Betalains (mg kg^−1 FW) Vx ([1]; Field trial 2, Belushi Rz): 247 mg kg^−1 FW
- Betalains:TSS ([1]; Field trial 2, Belushi Rz): 0.088
- Bn:Vx ([1]; Field trial 2, Belushi Rz): 6.42
- Betalains (g kg^−1 DM) ([1]; Field trial 2, Monty Rz): 21.5 g kg^−1 DM
- Betalains (mg kg^−1 FW) Bn ([1]; Field trial 2, Monty Rz): 2458 mg kg^−1 FW
- Betalains (mg kg^−1 FW) Vx ([1]; Field trial 2, Monty Rz): 364 mg kg^−1 FW
- Betalains:TSS ([1]; Field trial 2, Monty Rz): 0.132
- Bn:Vx ([1]; Field trial 2, Monty Rz): 6.88
- increase of Bn:Vx compared with untreated plants ([1]; Monty Rz): 34%
- increase of betalains:TSS in average ([1]; Monty Rz): 37%
- increase of root Bn content compared with untreated plants ([1]; Monty Rz): 25%
- mean Bn:Vx ([1]; Monty Rz, egc treated beetroots): 6.3
- Bn:Vn upon ethephon treatment ([1]; both cultivars): increased substantially
- effect on beetroot yield in tons per hectare ([1]; both cultivars): no significant effects
- effect on root FW ([1]; both cultivars): no significant effects
- Bn content of roots versus untreated plants ([1]; both cultivars, 16-week-old plants): increased
- DM (dry matter) of beetroots versus untreated roots ([1]; egc treated beetroots): lower
- betalain content versus untreated roots ([1]; egc treated beetroots): higher
- mean TSS versus untreated roots ([1]; egc treated beetroots): lower
- Bn:Vx higher in egc treated plants, average over all harvests ([2]; Belushi Rz): 35%
- higher Bn content than untreated, average of all harvests ([2]; Belushi Rz): 10%
- mean root Vx, less in average ([2]; Belushi Rz): 20%
- Bn content at peak ([2]; Belushi Rz): 2577 mg kg^−1 FW
- Betalains (mg kg^−1 FW) Bn [2, 3]: 945 mg kg^−1 FW
- Betalains (mg kg^−1 FW) Vx [2, 3]: 24.3 mg kg^−1 FW
- Bn:Vx [2, 3]: 39.0
- Betalains (mg kg^−1 FW) Bn [2, 4]: 2577 mg kg^−1 FW
- Betalains (mg kg^−1 FW) Vx [2, 4]: 58.4 mg kg^−1 FW
- Bn:Vx [2, 4]: 45.7
- Betalains (mg kg^−1 FW) Bn [2, 5]: 2144 mg kg^−1 FW
- Betalains (mg kg^−1 FW) Vx [2, 5]: 128 mg kg^−1 FW
- Bn:Vx [2, 5]: 17.2
- Betalains (mg kg^−1 FW) Bn [2, 6]: 1683 mg kg^−1 FW
- Betalains (mg kg^−1 FW) Vx [2, 6]: 157 mg kg^−1 FW
- Bn:Vx [2, 6]: 11.1
- Betalains (mg kg^−1 FW) Bn [2, 7]: 1442 mg kg^−1 FW
- Betalains (mg kg^−1 FW) Vx [2, 7]: 211 mg kg^−1 FW
- Bn:Vx [2, 7]: 6.84
- Betalains (mg kg^−1 FW) Bn [2, 8]: 1369 mg kg^−1 FW
- Betalains (mg kg^−1 FW) Vx [2, 8]: 286 mg kg^−1 FW
- Bn:Vx [2, 8]: 4.85
- Bn:Vx higher in egc treated plants, average over all harvests ([2]; Monty Rz): 17%
- higher Bn content than untreated, average of all harvests ([2]; Monty Rz): 17%
- mean root Vx, less in average ([2]; Monty Rz): 5%
- Bn content at peak ([2]; Monty Rz): 2867 mg kg^−1 FW
- Betalains (mg kg^−1 FW) Bn ([2]; Monty Rz, 3 weeks after sowing): 1343 mg kg^−1 FW
- Betalains (mg kg^−1 FW) Vx ([2]; Monty Rz, 3 weeks after sowing): 32.3 mg kg^−1 FW
- Bn:Vx ([2]; Monty Rz, 3 weeks after sowing): 41.6
- Betalains (mg kg^−1 FW) Bn ([2]; Monty Rz, 6 weeks after sowing): 2867 mg kg^−1 FW
- Betalains (mg kg^−1 FW) Vx ([2]; Monty Rz, 6 weeks after sowing): 62.3 mg kg^−1 FW
- Bn:Vx ([2]; Monty Rz, 6 weeks after sowing): 46.5
- Betalains (mg kg^−1 FW) Bn ([2]; Monty Rz, 9 weeks after sowing): 2685 mg kg^−1 FW
- Betalains (mg kg^−1 FW) Vx ([2]; Monty Rz, 9 weeks after sowing): 180 mg kg^−1 FW
- Bn:Vx ([2]; Monty Rz, 9 weeks after sowing): 14.9
- Betalains (mg kg^−1 FW) Bn [2, 9]: 2475 mg kg^−1 FW
- Betalains (mg kg^−1 FW) Vx [2, 9]: 239 mg kg^−1 FW
- Bn:Vx [2, 9]: 10.5
- Betalains (mg kg^−1 FW) Bn [2, 10]: 2274 mg kg^−1 FW
- Betalains (mg kg^−1 FW) Vx [2, 10]: 304 mg kg^−1 FW
- Bn:Vx [2, 10]: 7.56
- Betalains (mg kg^−1 FW) Bn [2, 11]: 2219 mg kg^−1 FW
- Betalains (mg kg^−1 FW) Vx [2, 11]: 455 mg kg^−1 FW
- Bn:Vx [2, 11]: 4.89
- highest Bn:Vx ([2]; both cultivars, 6 weeks after sowing): 46
- root mass and diameter, untreated versus treated red beets ([2]; both cultivars, at each harvest point, 360 g egc ha−1): no significant differences
